Experimental data from publication PMC9697947 (Viruses, 2022).

Columns and labels:
eHEV-3 (JE03-1760F) [1] = assay: Immunofluorescence assay of HEV ORF2 protein expression in PLC/PRF/5 cells; assay type: cell-based, Hepatitis E virus genotype 3; conditions: day 4 post-inoculation
eHEV-nanoKAZ [2] = assay: Time-of-addition: viral internalization assay; assay type: cell-based, Hepatitis E virus; conditions: PLC/PRF/5 cells
eHEV-nanoKAZ [3] = assay: Time-of-addition: viral attachment assay (intracellular luciferase activity); assay type: cell-based, Hepatitis E virus; conditions: PLC/PRF/5 cells
eHEV-nanoKAZ [4] = assay: microbe, parasite or virus in culture; conditions: Hepatitis E virus, PLC-PRF-5, read-out: Inhibition (%) of intracellular luciferase activity
[5] = design: method as in ref 47 = [47]; conditions: Antiretroviral Pregnancy Registry (APR); cited from earlier work
eHEV-nanoKAZ [6] = assay: Time-of-addition: viral inactivation assay (intracellular luciferase activity); conditions: PLC/PRF/5 cells, 4 days post-inoculation
HEV [7] = system: HEV; design: method as in ref 31 = [31]; conditions: cited from earlier work
HEV [8] = conditions: ribavirin monotherapy; undetectable serum HEV RNA at least six months after cessation; cited from earlier work
eHEV-3 (JE03-1760F) [9] = assay: HEV growth in PLC/PRF/5 cells inoculated with eHEV-3; assay type: cell-based, Hepatitis E virus genotype 3; conditions: 48 dpi
eHEV-3 (JE03-1760F) [10] = assay: HEV growth in PLC/PRF/5 cells robustly producing eHEV-3; assay type: cell-based, Hepatitis E virus genotype 3
eHEV-4 (HE-JF5/15F) [11] = assay: HEV growth in PLC/PRF/5 cells inoculated with eHEV-4; assay type: cell-based, Hepatitis E virus genotype 4; conditions: 48 dpi
eHEV-4 (HE-JF5/15F) [12] = assay: HEV growth in PLC/PRF/5 cells robustly producing eHEV-4; assay type: cell-based, Hepatitis E virus genotype 4
[13] = ribavirin 40 μM, mean of triplicate wells
[14] = ribavirin 40 μM, 60 days after the start of drug treatment, mean of triplicate wells
[15] = ribavirin alone 40 µM, day 60 after the start of drug treatment

## OC[C@H]1O[C@@](CO)(O[C@H]2O[C@H](CO)[C@@H](O)[C@H](O)[C@H]2O)[C@@H](O)[C@@H]1O [Sucrose]
eHEV-3 (JE03-1760F) [1]; sucrose 250 mM during 4 h inoculation
  expression of ORF2 protein: undetectable
eHEV-nanoKAZ [2]; sucrose 250 mM added after attachment, 37 °C 2 h, compared to untreated control, p = 0.0033
  intracellular luciferase activity: 14.9%

## CC(C)c1nc(CN(C)C(=O)N[C@H](C(=O)N[C@@H](Cc2ccccc2)C[C@H](O)[C@H](Cc2ccccc2)NC(=O)OCc2cncs2)C(C)C)cs1 [Ritonavir, ritonavir]
eHEV-nanoKAZ [3]; ritonavir 20 µM during attachment (4 °C 1 h, 37 °C 1 h), compared to untreated control
  intracellular luciferase activity: 100.4%
eHEV-nanoKAZ [4]
  inhibition at 0.05 µM: 18.1%
  inhibition at 0.1 µM: 29.1%
  inhibition at 0.5 µM: 59.6%
  inhibition at 1 µM: 71.6%
  inhibition at 5 µM: 89.7%
  inhibition at 35 µM: 95.9%
[5]
  risk of human teratogenicity: no evidence of an increased risk of human teratogenicity
eHEV-3 (JE03-1760F) [1]; ritonavir 20 µM during 4 h inoculation
  expression of ORF2 protein: undetectable
eHEV-nanoKAZ [6]; ritonavir 20 µM pre-incubated with eHEV-nanoKAZ 1 h 37 °C, compared to untreated control
  intracellular luciferase activity: 94.3%
eHEV-nanoKAZ [2]; ritonavir 20 µM added after attachment, 37 °C 2 h, compared to untreated control, p = 0.0036
  intracellular luciferase activity: 9.6%
HEV [7]
  inhibition of HEV growth in cultured cells: potent inhibition of HEV growth in cultured cells

## NC(=O)c1ncn([C@@H]2O[C@H](CO)[C@@H](O)[C@H]2O)n1 [Ribavirin, ribavirin]
HEV [8]
  sustained virological response (SVR), patients achieving: approximately 80%
eHEV-nanoKAZ [3]; ribavirin 40 µM during attachment
  intracellular luciferase activity: did not decrease intracellular luciferase activity
eHEV-3 (JE03-1760F) [9]; [13]
  Intracellular HEV RNA: 1.2 × 10^8 copies/well (mean)
eHEV-3 (JE03-1760F) [9]; ribavirin monotherapy 40 µM
  HEV RNA titer in culture supernatants: 2.0 × 10^7 copies/mL
eHEV-nanoKAZ [4]
  inhibition at 1 µM: 20.4%
  inhibition at 5 µM: 24.2%
  inhibition at 10 µM: 33.3%
  inhibition at 20 µM: 58%
  inhibition at 40 µM: 79.6%
  inhibition at 80 µM: 91%
eHEV-3 (JE03-1760F) [10]; [14]
  Intracellular HEV RNA: 1.6 × 10^7 copies/well (mean)
eHEV-3 (JE03-1760F) [10]; [15]
  HEV RNA titer in culture supernatants: 2.7 × 10^6 copies/mL
eHEV-4 (HE-JF5/15F) [11]; [13]
  Intracellular HEV RNA: 4.4 × 10^7 copies/well (mean)
eHEV-4 (HE-JF5/15F) [11]; ribavirin monotherapy 40 µM
  HEV RNA titer in culture supernatants: 4.3 × 10^7 copies/mL
eHEV-3 (JE03-1760F) [1]; ribavirin 40 µM during 4 h inoculation
  expression of ORF2 protein: detectable
eHEV-nanoKAZ [6]; ribavirin 40 µM pre-incubated with eHEV-nanoKAZ
  intracellular luciferase activity: did not decrease intracellular luciferase activity
eHEV-nanoKAZ [2]; ribavirin 40 µM added after attachment
  intracellular luciferase activity: did not decrease intracellular luciferase activity
eHEV-4 (HE-JF5/15F) [12]; [14]
  Intracellular HEV RNA: 2.3 × 10^7 copies/well (mean)
eHEV-4 (HE-JF5/15F) [12]; [15]
  HEV RNA titer in culture supernatants: 2.9 × 10^7 copies/mL
